{"source": "patent US20060258578A1", "about": "“Pharmaceutical composition” (The University of Zurich, priority 2005, published 2006)", "key": {"[1]": {"test_system": "MC3T3-E1 cells", "test": "maturation of preosteoblastic cells determined by alkaline phosphatase activity", "assay_type": "cell-based", "conditions": "for effect on maturation of MC3T3-E1 cells (alkaline phosphatase activity), solvent comparison: increasing amounts of solvent, triacetin 0,1 to 6 mM (FIG. 3)", "protocol": "(§1) MC3T3-E1 cells were grown in an alpha-modified Minimum Essential Medium (Life Technologies, Inc., Grand Island, N.Y.) containing 10% fetal calf serum (Life Technologies, Inc.), 50 μg/ml gentamycin, and 50 μg/ml ascorbic acid. C3H10T1/2 cells were grown in basal medium Eagle, and 50 μg/ml gentamycin. To examine the action of triacetin on both cell lines, 1×10^5 cells per well were plated in 6-well plates and triacetin subsequently added. Medium exchange was performed after 3 days and alkaline phosphatase (ALP) was determined according to Lowry, O. et al. [J. Biol. Chem. 207 (1954) 19-37]: p-nitrophenol liberated was converted to p-nitrophenylate by adding 400 μl of 1 M NaOH, which was quantitated by measuring the absorbance at 410 nm (epsilon=17500/mol×cm). Alkaline phosphatase activity was normalized to total protein and expressed as nmol nitrophenylate generated per min per mg protein.\n(§2) First, to verify the osteoinductive activity of triacetin an embryonic, murine, mesenchymal stem cell line C3H10T1/2 and a preosteoblastic cell line MC3T3-E1 were used and cultured as described above. C3H10T1/2 cells can differentiate into cartilage, bone or adipose cells, whereas MC3T3-E1 produces and releases autologous BMP. Alkaline phosphatase activity was used as a marker for the differentiation into the osteoblastic lineage.\nAdditionally, the effect of various plasticizers/solvents regarding their osteogenetic effect was compared to that of triacetin. MC3T3-E1 cells were grown as described above and treated with increasing amounts of different solvents and the effect on the maturation of MC3T3-E1 cells determined after 6 days by alkaline phosphatase activity.\nTo determine the effect of external BMP, C3H10T1/2 cells and MC3T3-E1 cells were plated at day one in 4 ml medium and ALP determination performed on day 6. On day 1 rhBMP was added to the cells from a stock solution of 2 mg/ml rhBMP-2 in 1 mM HCl to a concentration of 1 μg/ml. triacetin to a final concentration of 2 and 4 mM was added to the cells at the same time point from a stock solution of 200 mM triacetin in respective medium. After application triacetin and rhBMP was mixed by gently swirling the entire 6 well plate. In a separate experiment, the cells were treated with triacetin only.\nIn a similar manner, the effect of external rhBMP-4 on the maturation of MC3T3-E1 cells was determined by alkaline phosphatase activity. MC3T3-E1 cells were treated with triacetin in the presence or absence of 60 ng rhBMP-4/ml of the medium.\nMC3T3-E1 cells were treated with triacetin in the presence or absence of 60 ng rhBMP-7/ml of the medium."}, "[2]": {"test_system": "MC3T3-E1 cells", "test": "mineralization visualized by Alizarin red-S staining", "assay_type": "cell-based", "conditions": "MC3T3-E1, 4 weeks, 5 mM glycerol phosphate, 2.0 and 4.0 mM triacetin", "protocol": "FIG. 2A: MC3T3-E1 cells treated with increasing amounts of triacetin and the maturation determined after 6 days by alkaline phosphatase activity. FIG. 2B: Mineralization by MC3T3-E1 cells seeded on a 6-well plate visualized by Alizarin S-staining. The MC3T3-E1 cells were cultured for 4 weeks in the presence of 5 mM glycerol phosphate. From the left: no triacetin was added, 2.0 mM triacetin was added, 4.0 mM triacetin.\nMineralization was determined in MC3T3-E1 cells grown in the same medium supplemented with 5 mM glycerol phosphate and 1 μg/ml rhBMP-2 or 60 ng/ml of rhBMP-4 of rhBMP-7. Alizarin red-S staining was performed after 4 weeks according to Bodine, P. V. N., et al. [J. Bone Mineral Res. 11 (1996) 806-819]."}, "[3]": {"test_system": "C3H10T1/2 cells", "test": "differentiation of mesenchymal stem cells towards osteoblastic lineage determined by alkaline phosphatase activity", "assay_type": "cell-based, murine", "protocol": "as §1\nas §2, with “Alkaline phosphatase activity was used as a marker for the differentiation into the osteoblastic lineage.” left out\nThe differentiation of the mesenchymal cell like cell line (C3H10T1/2) towards an osteoblastic lineage was determined by alkaline phosphatase activity. […]"}}, "note": "“Also recorded” adds a separate entry of the source.", "data": [{"smiles": "CN(C)C=O", "note": "[N,N-dimethylformamide, reference compound]", "values": [{"measurement": "effect on maturation of MC3T3-E1 cells (alkaline phosphatase activity), solvent comparison", "setting": "[1]; after 6 days", "value": "no positive effect"}]}, {"smiles": "CCO", "note": "[ethanol, reference compound]", "values": [{"measurement": "effect on maturation of MC3T3-E1 cells (alkaline phosphatase activity), solvent comparison", "setting": "[1]; after 6 days", "value": "no positive effect"}]}, {"smiles": "CO", "note": "[methanol, reference compound]", "values": [{"measurement": "effect on maturation of MC3T3-E1 cells (alkaline phosphatase activity), solvent comparison", "setting": "[1]; after 6 days", "value": "no positive effect"}]}, {"smiles": "C[S+](C)[O-]", "note": "[dimethylsulfoxide, reference compound]", "values": [{"measurement": "effect on maturation of MC3T3-E1 cells (alkaline phosphatase activity), solvent comparison", "setting": "[1]; after 6 days", "value": "no positive effect"}]}, {"smiles": "CC(=O)OCC(COC(C)=O)OC(C)=O", "note": "[triacetin, glyceryl triacetate]", "values": [{"measurement": "increase of alkaline phosphatase activity", "setting": "[1]; MC3T3-E1, 0,0 to 4 mM triacetin, after 6 days", "value": "2.0-7.0 factor"}, {"measurement": "synergistic effect with rhBMP4 on maturation (alkaline phosphatase activity)", "setting": "[1]; MC3T3-E1, triacetin with 60 ng rhBMP4/ml (FIG. 5)", "value": "synergistic effect"}, {"measurement": "synergistic effect with rhBMP-7 on maturation (alkaline phosphatase activity)", "setting": "[1]; MC3T3-E1, triacetin with 60 ng rhBMP-7/ml (FIG. 6)", "value": "synergistic bone forming effect"}, {"measurement": "synergistic effect with rhBMP-2 on maturation (alkaline phosphatase activity)", "setting": "[1]; MC3T3-E1, triacetin with 1 μg rhBMP-2/ml (FIG. 4)", "value": "synergistic effect"}, {"measurement": "effect on maturation of MC3T3-E1 cells (alkaline phosphatase activity), solvent comparison", "setting": "[1]; after 6 days", "value": "increases in a concentration dependent manner"}, {"measurement": "mineralisation by alizarin-S-staining", "setting": "[2]", "value": "increased mineralisation"}, {"measurement": "alkaline phosphatase activity, triacetin alone", "setting": "[3]; C3H10T1/2, 2 mM and 4 mM, absence of rhBMP", "value": "increase in alkaline phosphatase activity; also recorded: able to induce alkaline phosphatase activity"}, {"measurement": "synergistic effect with rhBMP-2 on alkaline phosphatase activity", "setting": "[3]; C3H10T1/2, triacetin 2 and 4 mM with 1 μg rhBMP-2/ml, day 6", "value": "further enhanced; also recorded: works synergistically"}]}]}
